# “Also recorded” adds a separate entry of the source.
# Tested on: NOD-SCID mice bearing isogenic PSMA^+ PC3 PIP and PSMA^− PC3 flu tumors
# Experiment: Biodistribution in tumor-bearing mice
# Settings: for PSMA^+ PIP tumor uptake: PSMA+ PC3 PIP xenograft; for PSMA^− flu tumor uptake: PSMA− PC3 flu xenograft
# [1] = 30 min postinjection, tail vein, ± SD, n = 3–4
# [2] = 60 min postinjection, tail vein, ± SD, n = 3–4
# [3] = 120 min postinjection, tail vein, ± SD, n = 3–4
# [4] = 240 min postinjection, tail vein, ± SD, n = 3–4
structure (smiles),measurement,setting,value
"O=C(O)CCC(NC(=O)NC(CCCCNC(=O)c1ccc([18F])nc1)C(=O)O)C(=O)O (stereo not shown) [[^18F]DCFPyL, 2-(3-{1-carboxy-5-[(6-[^18F]fluoropyridine-3-carbonyl)-amino]-pentyl}-ureido)-pentanedioic acid, reference compound]",PSMA^+ PC3 PIP tumor uptake compared to [^18F]YC-88,"1, 2, and 4 h",significantly higher
same,blood uptake,[1],1.67 ± 0.54 % ID/g
same,bone uptake,[1],1.00 ± 0.51 % ID/g
same,fat uptake,[1],1.42 ± 0.51 % ID/g
same,heart uptake,[1],0.84 ± 0.16 % ID/g
same,kidney uptake,[1],135.28 ± 9.75 % ID/g
same,large intestine uptake,[1],1.17 ± 0.06 % ID/g
same,liver uptake,[1],3.54 ± 0.20 % ID/g
same,muscle uptake,[1],0.54 ± 0.05 % ID/g
same,salivary gland uptake,[1],2.60 ± 0.60 % ID/g
same,small intestine uptake,[1],0.83 ± 0.03 % ID/g
same,spleen uptake,[1],10.67 ± 1.68 % ID/g
same,stomach uptake,[1],0.90 ± 0.14 % ID/g
same,blood uptake,[2],0.72 ± 0.22 % ID/g
same,fat uptake,[2],0.84 ± 0.44 % ID/g
same,heart uptake,[2],0.32 ± 0.09 % ID/g
same,large intestine uptake,[2],0.49 ± 0.05 % ID/g
same,liver uptake,[2],3.48 ± 0.21 % ID/g
same,lung uptake,[2],1.41 ± 0.25 % ID/g
same,muscle uptake,[2],0.36 ± 0.18 % ID/g
same,pancreas uptake,[2],0.61 ± 0.21 % ID/g
same,salivary gland uptake,[2],1.57 ± 0.18 % ID/g
same,small intestine uptake,[2],0.56 ± 0.12 % ID/g
same,spleen uptake,[2],5.61 ± 0.56 % ID/g
same,stomach uptake,[2],0.50 ± 0.10 % ID/g
same,bladder (empty) uptake,[3],11.40 ± 9.95 % ID/g
same,blood uptake,[3],0.23 ± 0.05 % ID/g
same,bone uptake,[3],0.37 ± 0.05 % ID/g
same,fat uptake,[3],0.15 ± 0.02 % ID/g
same,kidney uptake,[3],61.23 ± 20.36 % ID/g
same,liver uptake,[3],3.08 ± 0.13 % ID/g
same,lung uptake,[3],0.41 ± 0.09 % ID/g
same,muscle uptake,[3],0.08 ± 0.02 % ID/g
same,pancreas uptake,[3],0.23 ± 0.05 % ID/g
same,salivary gland uptake,[3],0.43 ± 0.15 % ID/g
same,small intestine uptake,[3],0.55 ± 0.50 % ID/g
same,spleen uptake,[3],1.64 ± 0.40 % ID/g
same,stomach uptake,[3],0.21 ± 0.06 % ID/g
same,bladder (empty) uptake,[4],16.85 ± 10.15 % ID/g
same,blood uptake,[4],0.11 ± 0.00 % ID/g
same,bone uptake,[4],0.71 ± 0.40 % ID/g
same,fat uptake,[4],0.10 ± 0.05 % ID/g
same,heart uptake,[4],0.06 ± 0.01 % ID/g
same,kidney uptake,[4],19.36 ± 2.32 % ID/g
same,large intestine uptake,[4],0.83 ± 1.00 % ID/g
same,liver uptake,[4],2.30 ± 0.28 % ID/g
same,lung uptake,[4],0.16 ± 0.02 % ID/g
same,muscle uptake,[4],0.07 ± 0.04 % ID/g
same,pancreas uptake,[4],0.09 ± 0.02 % ID/g
same,salivary gland uptake,[4],0.32 ± 0.22 % ID/g
same,small intestine uptake,[4],0.16 ± 0.04 % ID/g
same,spleen uptake,[4],0.55 ± 0.11 % ID/g
same,stomach uptake,[4],0.09 ± 0.03 % ID/g
same,PSMA^+ PIP tumor uptake,[1],64.85 ± 19.22 % ID/g
same,PSMA^+ PIP tumor uptake,[2],84.29 ± 12.29 % ID/g
same,PSMA^+ PIP tumor uptake,[3],69.55 ± 1.71 % ID/g
same,PSMA^+ PIP tumor uptake,[4],74.34 ± 7.28 % ID/g
same,PSMA^− flu tumor uptake,[1],1.50 ± 0.71 % ID/g
same,PSMA^− flu tumor uptake,[2],0.46 ± 0.06 % ID/g
same,PSMA^− flu tumor uptake,[3],0.21 ± 0.06 % ID/g
same,PSMA^− flu tumor uptake,[4],0.21 ± 0.17 % ID/g
"O=C(O)CCC(NC(=O)NC(CCCCNC(=O)CCc1cn(CC[18F])nn1)C(=O)O)C(=O)O (stereo not shown) [[^18F]YC-88, 2-[3-(1-carboxy-5-{3-[1-(2-[^18F]fluoroethyl)-1H-1,2,3-triazol-yl]propanamido}pentyl)ureido]-pentanedioic acid]",difference in PSMA^+ PC3 PIP tumor uptake between [^18F]YC-88 and [^18F]DCFPyL,"30 min, P > 0.05",not statistically significant
same,salivary gland uptake compared to [^18F]DCFPyL,30 min and 1 h postinjection,significantly less; also recorded: significantly lower
same,PIP/flu uptake ratio,30 min postinjection,70
same,PIP/kidney uptake ratio (tumor-to-kidney),30 min postinjection,0.9
same,bladder (empty) uptake,[1],17.90 ± 14.18 % ID/g
same,blood uptake,[1],1.02 ± 0.43 % ID/g
same,bone uptake,[1],0.40 ± 0.16 % ID/g
same,fat uptake,[1],0.33 ± 0.08 % ID/g
same,heart uptake,[1],0.36 ± 0.18 % ID/g
same,kidney uptake,[1],44.08 ± 12.52 % ID/g
same,large intestine uptake,[1],0.87 ± 0.85 % ID/g
same,liver uptake,[1],1.70 ± 0.21 % ID/g
same,lung uptake,[1],1.09 ± 0.31 % ID/g
same,muscle uptake,[1],0.22 ± 0.07 % ID/g
same,pancreas uptake,[1],0.44 ± 0.13 % ID/g
same,salivary gland uptake,[1],0.85 ± 0.39 % ID/g
same,small intestine uptake,[1],0.37 ± 0.11 % ID/g
same,spleen uptake,[1],1.67 ± 0.46 % ID/g
same,stomach uptake,[1],0.41 ± 0.14 % ID/g
same,PIP/flu uptake ratio,60 min postinjection,170
same,PIP/kidney uptake ratio (tumor-to-kidney),60 min postinjection,2.4
same,bladder (empty) uptake,[2],7.78 ± 4.15 % ID/g
same,blood uptake,[2],0.29 ± 0.08 % ID/g
same,bone uptake,[2],0.16 ± 0.04 % ID/g
same,fat uptake,[2],0.31 ± 0.18 % ID/g
same,heart uptake,[2],0.18 ± 0.06 % ID/g
same,kidney uptake,[2],20.08 ± 8.09 % ID/g
same,large intestine uptake,[2],0.27 ± 0.14 % ID/g
same,liver uptake,[2],1.73 ± 0.14 % ID/g
same,lung uptake,[2],0.49 ± 0.24 % ID/g
same,muscle uptake,[2],0.11 ± 0.06 % ID/g
same,pancreas uptake,[2],0.16 ± 0.06 % ID/g
same,salivary gland uptake,[2],0.31 ± 0.07 % ID/g
same,small intestine uptake,[2],0.23 ± 0.04 % ID/g
same,spleen uptake,[2],0.69 ± 0.23 % ID/g
same,stomach uptake,[2],0.34 ± 0.20 % ID/g
same,PIP/flu uptake ratio,120 min postinjection,243
same,PIP/kidney uptake ratio (tumor-to-kidney),120 min postinjection,4
same,bladder (empty) uptake,[3],4.33 ± 2.64 % ID/g
same,blood uptake,[3],0.28 ± 0.23 % ID/g
same,bone uptake,[3],0.37 ± 0.36 % ID/g
same,fat uptake,[3],0.17 ± 0.10 % ID/g
same,heart uptake,[3],0.07 ± 0.02 % ID/g
same,kidney uptake,[3],10.20 ± 2.76 % ID/g
same,large intestine uptake,[3],0.31 ± 0.13 % ID/g
same,liver uptake,[3],1.74 ± 0.23 % ID/g
same,lung uptake,[3],0.22 ± 0.10 % ID/g
same,muscle uptake,[3],0.10 ± 0.03 % ID/g
same,pancreas uptake,[3],0.11 ± 0.06 % ID/g
same,salivary gland uptake,[3],0.25 ± 0.07 % ID/g
same,small intestine uptake,[3],0.18 ± 0.07 % ID/g
same,spleen uptake,[3],0.29 ± 0.16 % ID/g
same,stomach uptake,[3],0.12 ± 0.07 % ID/g
same,PIP/flu uptake ratio,240 min postinjection,368
same,PIP/kidney uptake ratio (tumor-to-kidney),240 min postinjection,6.7
same,bladder (empty) uptake,[4],1.22 ± 0.89 % ID/g
same,blood uptake,[4],0.12 ± 0.04 % ID/g
same,bone uptake,[4],0.11 ± 0.03 % ID/g
same,fat uptake,[4],0.10 ± 0.04 % ID/g
same,heart uptake,[4],0.04 ± 0.01 % ID/g
same,kidney uptake,[4],3.84 ± 0.29 % ID/g
same,large intestine uptake,[4],0.23 ± 0.09 % ID/g
same,liver uptake,[4],1.45 ± 0.14 % ID/g
same,lung uptake,[4],0.13 ± 0.02 % ID/g
same,muscle uptake,[4],0.06 ± 0.03 % ID/g
same,pancreas uptake,[4],0.07 ± 0.02 % ID/g
same,salivary gland uptake,[4],0.14 ± 0.02 % ID/g
same,small intestine uptake,[4],0.14 ± 0.03 % ID/g
same,spleen uptake,[4],0.15 ± 0.05 % ID/g
same,stomach uptake,[4],0.06 ± 0.02 % ID/g
same,PSMA^+ PIP tumor uptake,[1],40.31 ± 5.13 % ID/g
same,PSMA^+ PIP tumor uptake,[2],47.58 ± 5.19 % ID/g
same,PSMA^+ PIP tumor uptake,[3],41.29 ± 4.22 % ID/g
same,PSMA^+ PIP tumor uptake,[4],25.74 ± 7.33 % ID/g
same,PSMA^− flu tumor uptake,[1],0.58 ± 0.23 % ID/g
same,PSMA^− flu tumor uptake,[2],0.28 ± 0.13 % ID/g
same,PSMA^− flu tumor uptake,[3],0.17 ± 0.03 % ID/g
same,PSMA^− flu tumor uptake,[4],0.07 ± 0.01 % ID/g
same,"kidney, liver, and spleen uptake compared to [^18F]DCFPyL","all time points, two-tailed Student's t test",significantly lower
same,difference in PSMA^− PC3 flu tumor uptake between the two radiotracers,any time,no significant difference
same,bone uptake,at all time points,< 1 % ID/g
